In patent publication US9738614B2, “Malignant and non-malignant disease treatment with Ras antagonists” (PISCES THERAPEUTICS, LLC, priority 2011, dated 2017):

Key:
JW19 cells = assay: IC50 assay with JW19 mouse MPNST cells; type: cell-based; conditions: 0.5 to 20 μM, read-out: half-maximal effect on viability
Procedure: (§1) U87MG cells were seeded in a 24-well plate, 5000 cells per well, and incubated overnight at 37° C. in serum-free media. The next day they were treated in triplicate with 50 and 100 μM of each test compound (1), (2), (3), (4), and (5) and the reference compound FTS. After five days, the cells were trypsinized (0.5%), stained with trypan blue, and counted to determine the cell number per well. The half-maximal inhibitory concentration (IC50) values were calculated using Multiplex Reader-Fit software made by MiraiBio Group, Hitachi Solutions America, Ltd. In a typical experiment, the control wells averaged 138,000 cells. The results are presented graphically in FIG. 1. The test compounds at 50 μM allowed the following U87MG cell proliferation compared to control: compound (1)—37%, compound (2)—18%, compound (3)—10%, compound (4)—40%, and compound (5)—0%. The reference compound FTS at 50 μM allowed 7% cell proliferation compared to control.
Mouse models of NF-1 related MPNST have been made. Cells from two such mice, JW16 and JW19, have been isolated and propagated. The JW16 and JW19 cells were subjected to IC50 assays similar to Example 6 above.

[1] = test system: activated, GTP-bound form of Ras (Ras-GTP); assay: Ras-GTP Western blot in SCF-stimulated NF-1+/- mast cells; type: cell-based; conditions: 10-15 μM, 3 minutes after SCF stimulation (FIG. 4A)
Procedure: Purified populations of NF-1+/−mast cells were stimulated with a maximum stimulating concentration of stem cell factor (SCF) in the presence of a control or compound (5) at concentrations of 10-15 μM. The activated, GTP-bound form of Ras (Ras-GTP) was measured 3 minutes subsequently using Western blot analysis. […] In parallel experiments, mast cell proliferation was measured using 3H-thymidine incorporation 24 hours after SCF stimulation in the presence of a control or compound (5) at concentrations of 0-12.5 μM. […] Each asterisk in FIG. 4B represents a statistical difference relative to the control using analysis of variance. (Yang, Feng-Chun, et. al. J Clin Invest 2003, 112(12), 1851-1861; Yang, Feng-Chun, et. al. Hum Mol Genet 2006, 15(11), 1921-1930).

ECC1 cells = assay: IC50 assay with ECC1 endometrial cancer cells; type: cell-based; conditions: Homo sapiens, ECC-1, 1 to 50 μM, read-out: half-maximal inhibition of viability
Procedure: as §1
(§2) ECC1 (well differentiated) and USPC1 (poorly differentiated) endometrial cancer cells were subjected to IC50 assays similar to Example 6 above. The cells were grown in concentrations of compound (5) ranging from 1 to 50 μM.

PANC-1 cells = assay: Cell proliferation assay for PANC-1 cells; type: cell-based; conditions: 1.25 μM, media with 5% serum, five days (FIG. 3)
Procedure: The adult glioblastoma cell line U87MG was obtained from a commercial source (ATCC). The pancreatic cancer cell line PANC-1 was obtained from a local laboratory (Indiana University). Both lines were grown in Iscove's Modified Dulbecco's Medium with 10% fetal bovine serum (FBS) at 37° C. and 5% CO2.
Compounds (1), (2), (3), (4), and (5), which are shown and described above, were each dissolved in ethanol at 10 mg/mL. A measured portion of the solution was pipetted into a microcentrifuge tube. Then, the ethanol was evaporated from each tube using a SpeedVac®, leaving just the compound in the tube. The appropriate amount of chloroform was added to the tube to produce a 0.1 M concentration. The solutions were placed on ice and in the dark so they could be pipetted into 10- and 20-μL aliquots in 1.5 mL microcentrifuge tubes. The solutions were frozen at […] with lids closed tightly and the tubes covered with foil.
Prior to treating the cells, a tube of the test compound was removed from the freezer and placed under a biosafety hood to evaporate the chloroform in the tubes. Then, dimethyl sulfoxide (DMSO) was added to the tubes to make the correct concentration to use in the experiment (0.1 M stock). The tubes were vortexed, and warm media with 10% FBS was slowly added to make the correct working concentrations to be used in the experiment. The compounds were directly added to each well for treatment.
The cells were treated in triplicate with standard concentrations of 6.25, 12.5, 25, 50, and 100 μM of each test compound (3) and (5) and the reference compound FTS and, when needed, concentrations of 0.625, 1.25, 2.5 and 5.0 μM in media with 5% serum for five days. Then, the cells were stained with trypan blue, and the cell number per each well was determined. Again, the IC50 values were calculated using Multiplex Reader-Fit software made by MiraiBio Group, Hitachi Solutions America, Ltd. In a typical experiment, the control wells averaged 32,500 cells. The results are presented graphically in FIG. 3. […]

USPC1 cells = assay: IC50 assay with USPC1 endometrial cancer cells; type: cell-based; conditions: 1 to 50 μM, read-out: half-maximal inhibition of viability
Procedure: as §1, §2

[2] = test system: primary human lung fibroblasts; assay: Inhibition of TGF-β induced myofibroblast formation (α-SMA Western blot); type: cell-based; conditions: Homo sapiens, Fibroblast, TGF-β 72 hours, 0.5 to 2 μM
Procedure: Primary human lung fibroblasts were stimulated for 72 hours with transforming growth factor beta (TGF-β) to induce their differentiation to an alpha smooth muscle actin (α-SMA) expressing activated myofibroblasts cell fate. […] The activin like kinase receptor (ALK5) inhibitor SB431542 was used as a positive control. Myofibroblast formation was evaluated by Western blot by examining changes in α-SMA levels.

ST88-14 cells = assay: ST88-14 MPNST flank tumors in nude mice; type: in vivo, mouse; conditions: 5 mg/kg or 10 mg/kg intraperitoneally once a day
Procedure: ST88-14 cells were injected into the flanks of nude mice and tumors were allowed to grow. When their lengths and widths could readily be determined by palpation, the animals were treated with compound (5) at doses of 5 mg/kg or 10 mg/kg intraperitoneally once a day or vehicle. Tumor dimensions were determined over the course of a 35 day treatment period at the end of which the animals were killed. At this point the tumors were removed and weighed.

EJ cells = assay: IC50 assay with EJ bladder cancer cells; type: cell-based; conditions: Homo sapiens, 1.5 to 25 μM, read-out: half-maximal inhibition of viability
Procedure: as §1
EJ bladder cancer cells, which harbor a H-Ras mutation, were subjected to an IC50 assay similar to Example 6 above. EJ cells were grown in concentrations of compound (5) ranging from 1.5 to 25 μM.

IC50 (ECC1 cells): 4 µM
IC50 (USPC1 cells): 2 µM
IC50 (EJ cells): 2.5 µM
Compound: CC(C)=CCC/C(C)=C/CC/C(C)=C/CSc1ccccc1C1=NCCN1 [compound (5), 2-(2-{[(2E,6E)-3,7,11-trimethyldodeca-2,6,10-trien-1-yl]sulfanyl}phenyl)-4,5-dihydro-1H-imidazole]
IC50 (JW19 cells): 4 µM
level of Ras-GTP relative to the control [1]: significantly reduced
PANC-1 cell proliferation compared to control (PANC-1 cells): 56%
EC50 [2]: ~1 µM
tumor size (ST88-14 cells; 35 day treatment): dose dependent decrease
tumor weight (ST88-14 cells; end of 35 day treatment): dose dependent decrease
